# Read-outs that look alike come from different tables or passages of the source.
# Experiment: Solubility of the Mesylate in water (aliquot addition until the powder dissolved)
# Assay type: physicochemical
# From the text: The visual solubility was confirmed by an HPLC assay of a saturated solution.
SMILES,Solubility [mg/mL],"Solubility (water, visual dissolution (Form IV confirmed by HPLC assay of a saturated solution)) [mg/mL]"
"CN(CCOc1ccc(CC2SC(=O)NC2=O)cc1)c1ccccn1.CS(=O)(=O)O (stereo not shown) [Example 4, 5-[4-[2-(N-methyl-N-(2-pyridyl)amino)ethoxy]benzyl]thiazolidine-2,4-dione methanesulfonate Form III]",> 100,
"CN(CCOc1ccc(CC2SC(=O)NC2=O)cc1)c1ccccn1.CS(=O)(=O)O (stereo not shown) [Example 3, 5-[4-[2-(N-methyl-N-(2-pyridyl)amino)ethoxy]benzyl]thiazolidine-2,4-dione methanesulfonate Form II]",> 100,
"CN(CCOc1ccc(CC2SC(=O)NC2=O)cc1)c1ccccn1.CS(=O)(=O)O (stereo not shown) [Example 11, 5-[4-[2-(N-methyl-N-(2-pyridyl)amino)ethoxy]benzyl]thiazolidine-2,4-dione methanesulfonate Form IV]",> 100,
"CN(CCOc1ccc(CC2SC(=O)NC2=O)cc1)c1ccccn1.CS(=O)(=O)O (stereo not shown) [Example 1, 5-[4-[2-(N-methyl-N-(2-pyridyl)amino)ethoxy]benzyl]thiazolidine-2,4-dione methanesulfonate Form I]",,> 100

# — US7291740B2, “5-[4-[2-(N-methyl-N-(2-pyridyl)amino)ethoxy]benzyl]thiazolidine-2,4-dione Mesylate salt” (SmithKline Beecham p.l.c., priority 2000, dated 2007)
